How the values were obtained:
[1] = system: HeLa cells; assay: Cell cycle distribution by flow cytometry; conditions: 18 h; 125 nM AF, 200 nM AI, 35 nM AJ
[2] = system: isogenic HeLa-derived cell line that expresses the βIII isotype of tubulin; conditions: cited from earlier work

SMILES: CC(=O)O[C@H]1C(=O)[C@@]2(C)[C@H]([C@H](OC(=O)c3ccccc3)[C@]3(O)C[C@H](OC(=O)[C@H](O)[C@@H](NC(=O)c4ccccc4)c4ccccc4)C(C)=C1C3(C)C)[C@]1(OC(C)=O)CO[C@@H]1C[C@@H]2O [paclitaxel]
- effect on cell cycle distribution / mitotic progression [1]: mitotic arrest
- sensitivity of βIII-tubulin-overexpressing cell line compared with parental HeLa cells [2]: less sensitive
